Reference: article PMC8196580, “Identification of Kaurane-Type Diterpenes as Inhibitors of Leishmania Pteridine Reductase I” (Molecules, 2021)
Where two headings read alike, the source gives them in different places.

Tests used:
[1] = tested on: L. major; assay: ChEMBL dataset of pIC50 values against L. major used for the RF model (Table S1); assay type: cell-based, Leishmania major; further: call rule not given here
[2] = tested on: L. major; design: method as in ChEMBL; conditions: ref ChEMBL, cited from earlier work
[3] = Active/Inactive class assigned to the ChEMBL pIC50 value for Random forest model construction, ref ChEMBL
[4] = ChemBL structures with pIC50 values used for Random forest model construction, L. major
[5] = Active/Inactive class assigned to ChemBL structures for Random forest model construction (Table S1)
[6] = ChemBL structures with pIC50 values used for Random forest model construction (Table S1)

SMILES | Outcome [1, 3] | pIC50 Value [2, 4] | Outcome [1, 5] | pIC50 Value [2, 6]
CCCNC(=N)c1ccc(N2CCN(c3nnc(-c4ccc([N+](=O)[O-])o4)s3)CC2)cc1.Cl [CHEMBL1783203] | Active | 5.00 |  | 
COc1ccc([C@@H]2COc3c(ccc4occc34)C2)c(OC)c1O [CHEMBL498724] | Inactive | 4.76 |  | 
COc1cc(OC)c2c(C)[n+](-c3ccccc3)c(C)cc2c1.[O-][Cl+3]([O-])([O-])[O-] [CHEMBL3706858] | Inactive | 4.58 |  | 
COc1ccc(-n2nnc3c(N4CCCC(O)C4)nc(CC4CCCCC4)nc32)cc1 (stereo not shown) [CHEMBL2171512] | Active | 5.07 |  | 
Fc1ccc(-c2nc3ccccn3c2-c2cccnc2)cc1 [CHEMBL2151875] | Inactive | 4.42 |  | 
ClCCN1c2ccccc2Oc2ccc(Cl)cc21 [CHEMBL3759618] | Inactive | 4.00 |  | 
Fc1ccc(-c2nc3c(NCCN4CCOCC4)nccn3c2-c2ccncc2)cc1 [CHEMBL3634368] | Inactive | 4.78 |  | 
Cc1ccc2cc(/C=C/C(=O)c3ccc(Br)s3)c(Cl)nc2c1 [CHEMBL1940859] |  |  | Active | 5.64
COc1ccc(-c2nc3ccc([N+](=O)[O-])cc3[nH]2)cc1 [CHEMBL1535921] |  |  | Active | 5.50
COc1ccccc1C(=O)N/N=C/c1ccc(O)cc1O [CHEMBL2382048] | Inactive | 4.05 |  | 
CC(=O)C1=C(C)NC(=O)NC1c1cccc(C)c1 (stereo not shown) [CHEMBL3786214] |  |  | Active | 5.44
c1c[nH]c(-c2nc3ccccc3[nH]2)c1 [CHEMBL2298016] |  |  | Active | 5.46
Cc1cccc2cc(C3CC(c4ccc(I)s4)=NN3)c(Cl)nc12 (stereo not shown) [CHEMBL2236134] |  |  | Active | 5.77
CC1=C(C(=O)/C=C/c2ccc(Cl)cc2)C(c2ccccc2)NC(=O)N1C (stereo not shown) [CHEMBL3785670] |  |  | Active | 5.77
CCC(=O)N1CCCCC1[C@](C)(O)[C@H]1CC[C@H]2[C@@H]3CC[C@H]4C[C@@H](O)CC[C@]4(C)[C@H]3CC[C@@]21C (stereo partly shown) [CHEMBL1214310] | Inactive | 4.27 |  | 
C[C@@H]1CC[C@H]2[C@@H](C)C(=O)O[C@@H]3O[C@@]4(C)CC[C@@H]1[C@]32OO4 [CHEMBL269671] |  |  | Active | 6.12
O=C(CCl)N1c2cc(Cl)ccc2Oc2ccc(Cl)cc21 [CHEMBL3759123] | Active | 5.02 |  | 
COc1cc(C)cc2c1C(=O)C=C(C1=C(C)C(=O)c3ccc(O)c(OC)c3C1=O)C2=O [CHEMBL2071225] |  |  | Active | 10.28
CCOC(=N)c1ccc(N2CCN(c3nnc(-c4ccc([N+](=O)[O-])o4)s3)CC2)cc1.Cl [CHEMBL1783199] | Inactive | 4.32 |  | 
CCCCCCNc1ccc(Nc2c3ccc(N(C)C)cc3nc3cc(N(C)C)ccc23)cc1 [CHEMBL86823] |  |  | Active | 6.80
COc1cc2c(c(OC)c1)C(C)=[N+](c1ccc3cc(C)cc(OC)c3c1O)[C@@H](C)C2.O=C([O-])C(F)(F)F [CHEMBL426747] |  |  | Active | 5.91
COc1ccc(C(=O)/C=C/c2ccc(-n3ccnc3)cc2)cc1 [CHEMBL570461] |  |  | Active | 5.49
Oc1ccc(-c2nc3ccccc3[nH]2)cc1 [CHEMBL377740] |  |  | Active | 5.36
CCCN1CN(CC(=O)OCc2ccccc2)CSC1=S [CHEMBL4289905] | Inactive | 4.03 |  | 

SMILES | Outcome [1, 3] | pIC50 Value [2, 4] | Outcome [1, 5] | pIC50 Value [2, 6]
CC(C)N1CSC(=S)N(C(C)c2ccccc2)C1 (stereo not shown) [CHEMBL4283106] | Inactive | 4.67 |  | 
COc1ccccc1-c1nnc(-c2ccc(C(=O)N/N=C/c3ccc(Cl)cc3)cc2)o1 [CHEMBL4060153] | Inactive | 4.47 |  | 
O=[N+]([O-])c1ccc2nc(-c3ccccc3)[nH]c2c1 [CHEMBL1164403] |  |  | Active | 5.48
CCOc1ccc(/N=C/c2cn(C)c3ccccc23)cc1 [CHEMBL2071554] |  |  | Active | 5.50
COc1cc2c(c(OC)c1)C(C)N(c1cccc3ccccc13)C(C)C2 (stereo not shown) [CHEMBL520770] | Inactive | 4.18 |  | 
N=C(N)c1ccc(OCCCCCOc2ccc(C(=N)N)cc2)cc1.O=S(=O)(O)CCO [CHEMBL935] | Inactive | 4.08 |  | 
O/N=C1/c2ccccc2OC(c2cccc(Cl)c2)C1n1ccnc1 (stereo not shown) [CHEMBL4088885] | Inactive | 4.58 |  | 
Cc1nc(-c2ccccn2)nc(N2CCC(Cc3ccccc3)C2)c1Cl (stereo not shown) [CHEMBL474899] | Active | 5.05 |  | 
O=[N+]([O-])c1ccc(-c2nc3ccccn3c2-c2ccccc2)cc1 [CHEMBL2151880] | Inactive | 4.52 |  | 
CC(=O)Oc1ccc(OC(C)=O)c2c1CC1(C)CCC(=O)C(C)=C1C2=O (stereo not shown) [CHEMBL255869] | Inactive | 3.65 |  | 
COc1ccccc1-c1nnc(-c2ccc(C(=O)N/N=C/c3ccccn3)cc2)o1 [CHEMBL4069827] | Active | 5.04 |  | 
O=C(c1cccc(Cl)c1)N1CCN(c2nnc(-c3ccc([N+](=O)[O-])o3)s2)CC1 [CHEMBL458527] | Inactive | 4.88 |  | 
Cc1csc(C(=O)/C=C/c2cc3cccc(C)c3nc2Cl)c1 [CHEMBL1940863] |  |  | Active | 5.74
c1ccc(Nc2c3ccccc3nc3ccccc23)cc1 [CHEMBL49436] |  |  | Active | 5.57
COc1cc(C(=O)/C=C/C2=Cc3cc(Cl)ccc3OC2)cc(OC)c1OC [CHEMBL1094315] |  |  | Active | 5.69
CC(=O)C1=C(C)NC(=S)NC1c1ccccc1 (stereo not shown) [CHEMBL2359517] |  |  | Active | 5.50
Cl.N=C(NCc1ccccc1)c1ccc(N2CCN(c3nnc(-c4ccc([N+](=O)[O-])o4)s3)CC2)cc1 [CHEMBL1783206] | Active | 5.05 |  | 
CC1=C(C(=O)Nc2ccc(C(=O)/C=C/c3cccc([N+](=O)[O-])c3)cc2)C(c2cccc(O)c2)NC(=S)N1 (stereo not shown) [CHEMBL3786907] |  |  | Active | 5.95
COc1ccc(OC)c(Nc2ncnc3ccc([N+](=O)[O-])cc23)c1 [CHEMBL3758611] | Inactive | 4.91 |  | 
CC1=C(C(=O)/C=C/c2cccc([N+](=O)[O-])c2)C(c2ccccc2)NC(=O)N1C (stereo not shown) [CHEMBL3785174] |  |  | Active | 5.71
COc1ccc(/C=N\NC(N)=S)cc1OCc1cn(CC(=O)c2ccc(Cl)cc2)nn1 [CHEMBL4163696] |  |  | Active | 5.77
COc1ccc(-c2ccc(C(F)(F)F)cc2)c2c1C(C)=N[C@H](C)C2 [CHEMBL1278172] | Inactive | 4.00 |  | 
O=C(/C=C/c1ccc(O)cc1)c1ccccc1 [CHEMBL7747] |  |  | Active | 5.40
